Key:
[1] = biological target: Casein kinase II subunit alpha' (Homo sapiens) (UniProt P19784); experiment: Selectivity interaction (Kinase panel (literature)) EUB0001199aCl CSNK2A2; settings: at 1 µM
[2] = biological target: Ribosomal protein S6 kinase alpha-6 (Homo sapiens, UniProt Q9UK32); experiment: Selectivity interaction (KinomeScan (DiscoverX)) EUB0000666a RPS6KA6; settings: at 10 µM
[3] = biological target: Ribosomal protein S6 kinase alpha-4 (Homo sapiens) (UniProt O75676); experiment: Selectivity interaction (KinomeScan (DiscoverX)) EUB0000229b RPS6KA4; settings: at 10 µM
[4] = biological target: 1-phosphatidylinositol 3-phosphate 5-kinase (Homo sapiens) (UniProt Q9Y2I7); experiment: Selectivity interaction (KinomeScan (DiscoverX)) EUB0000229b PIKFYVE; settings: at 10 µM
[5] = biological target: Cyclin-dependent kinase 5 (Homo sapiens, UniProt Q00535); experiment: Selectivity interaction (ActivX KiNativ screen (kinase selectivity in THP-1 cell lysates)) EUB0000639a CDK5; format: subcellular; settings: lysate, at 0.2 µM
[6] = biological target: T1, Mitogen-activated protein kinase kinase kinase 19 (Homo sapiens) (UniProt Q56UN5); experiment: Selectivity interaction (KinomeScan (DiscoverX)) EUB0000595a MAP3K19; settings: at 10 µM
T1 sequence (whole entry): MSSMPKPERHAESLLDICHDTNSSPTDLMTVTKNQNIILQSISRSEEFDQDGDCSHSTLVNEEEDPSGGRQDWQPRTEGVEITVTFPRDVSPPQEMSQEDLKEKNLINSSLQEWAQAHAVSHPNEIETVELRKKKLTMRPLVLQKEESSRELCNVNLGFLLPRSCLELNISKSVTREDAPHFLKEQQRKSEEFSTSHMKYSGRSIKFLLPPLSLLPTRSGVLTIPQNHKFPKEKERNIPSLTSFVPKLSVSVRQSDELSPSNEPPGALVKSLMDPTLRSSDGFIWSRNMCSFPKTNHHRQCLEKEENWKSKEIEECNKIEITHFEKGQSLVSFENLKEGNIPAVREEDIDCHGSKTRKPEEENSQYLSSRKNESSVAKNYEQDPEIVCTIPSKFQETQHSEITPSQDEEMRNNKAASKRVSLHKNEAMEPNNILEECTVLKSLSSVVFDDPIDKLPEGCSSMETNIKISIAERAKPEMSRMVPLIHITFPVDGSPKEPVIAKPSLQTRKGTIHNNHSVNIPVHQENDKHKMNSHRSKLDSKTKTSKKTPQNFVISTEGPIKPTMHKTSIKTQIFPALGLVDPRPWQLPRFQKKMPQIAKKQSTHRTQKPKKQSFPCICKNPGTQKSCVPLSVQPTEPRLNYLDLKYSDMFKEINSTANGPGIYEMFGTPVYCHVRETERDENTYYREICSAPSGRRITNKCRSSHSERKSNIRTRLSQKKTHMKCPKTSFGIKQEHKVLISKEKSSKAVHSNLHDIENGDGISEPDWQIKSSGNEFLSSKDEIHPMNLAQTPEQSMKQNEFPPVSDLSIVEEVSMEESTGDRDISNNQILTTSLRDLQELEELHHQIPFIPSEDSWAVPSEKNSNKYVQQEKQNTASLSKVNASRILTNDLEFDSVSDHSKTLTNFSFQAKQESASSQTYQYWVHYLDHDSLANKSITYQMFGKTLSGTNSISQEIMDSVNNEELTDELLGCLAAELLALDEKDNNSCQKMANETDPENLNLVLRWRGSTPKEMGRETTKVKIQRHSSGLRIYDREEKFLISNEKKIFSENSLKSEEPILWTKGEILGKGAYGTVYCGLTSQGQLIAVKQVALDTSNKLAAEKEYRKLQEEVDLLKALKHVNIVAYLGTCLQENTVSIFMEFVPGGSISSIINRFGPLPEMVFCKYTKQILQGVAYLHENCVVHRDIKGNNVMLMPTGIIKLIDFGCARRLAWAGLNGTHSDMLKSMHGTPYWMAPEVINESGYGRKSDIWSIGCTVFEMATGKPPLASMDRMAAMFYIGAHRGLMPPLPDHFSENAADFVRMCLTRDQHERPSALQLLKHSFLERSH

[7] = biological target: T2, Serine/threonine-protein kinase D3 (Homo sapiens) (UniProt O94806); experiment: Selectivity interaction (Ambit KINOMEscan and KiNATiv profiling in Jurkat cells) EUB0000090b PRKD3; format: cell-based; settings: at 1 µM
T2 sequence (whole entry): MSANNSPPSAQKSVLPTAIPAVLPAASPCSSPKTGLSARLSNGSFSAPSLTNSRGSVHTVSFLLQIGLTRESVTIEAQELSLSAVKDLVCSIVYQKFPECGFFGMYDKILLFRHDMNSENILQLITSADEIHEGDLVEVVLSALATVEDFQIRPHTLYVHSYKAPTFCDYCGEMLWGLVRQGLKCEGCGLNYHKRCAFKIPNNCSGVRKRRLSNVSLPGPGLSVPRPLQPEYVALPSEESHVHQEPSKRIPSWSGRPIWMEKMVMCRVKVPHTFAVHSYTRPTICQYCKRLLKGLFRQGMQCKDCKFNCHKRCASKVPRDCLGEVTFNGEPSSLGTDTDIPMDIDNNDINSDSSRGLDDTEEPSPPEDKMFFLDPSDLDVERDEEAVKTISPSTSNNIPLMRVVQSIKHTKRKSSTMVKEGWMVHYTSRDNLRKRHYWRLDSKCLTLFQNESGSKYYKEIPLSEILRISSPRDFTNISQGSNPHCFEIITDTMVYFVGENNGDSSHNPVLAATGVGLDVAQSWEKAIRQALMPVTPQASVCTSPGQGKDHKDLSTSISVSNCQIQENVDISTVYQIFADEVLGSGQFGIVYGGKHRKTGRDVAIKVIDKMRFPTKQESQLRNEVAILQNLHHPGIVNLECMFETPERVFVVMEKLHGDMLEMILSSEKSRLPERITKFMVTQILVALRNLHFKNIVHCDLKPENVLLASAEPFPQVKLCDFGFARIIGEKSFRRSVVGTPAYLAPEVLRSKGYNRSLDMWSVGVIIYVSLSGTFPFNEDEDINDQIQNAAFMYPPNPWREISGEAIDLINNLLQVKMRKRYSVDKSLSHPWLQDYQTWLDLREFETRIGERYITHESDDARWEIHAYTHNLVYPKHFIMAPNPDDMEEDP

[8] = biological target: Death-associated protein kinase 2 (Homo sapiens) (UniProt Q9UIK4); experiment: Selectivity interaction (KinomeScan (DiscoverX)) EUB0000618a DAPK2; settings: at 10 µM
[9] = biological target: Non-receptor tyrosine-protein kinase TYK2 (Homo sapiens, UniProt P29597); experiment: Selectivity interaction (KinomeScan (DiscoverX)) EUB0000618a TYK2; settings: at 10 µM
[10] = biological target: Tyrosine-protein kinase ABL1 (Homo sapiens, UniProt P00519); experiment: Selectivity interaction (ActivX KiNativ screen (ex vivo kinase selectivity in human PBMCs)) EUB0001619a ABL1; format: cell-based; settings: PBMC, at 1 µM
[11] = biological target: Dual specificity protein kinase CLK3 (Homo sapiens, UniProt P49761); experiment: Selectivity interaction (KinomeScan (DiscoverX)) EUB0000607a CLK3; settings: at 10 µM
[12] = biological target: Casein kinase I isoform gamma-3 (Homo sapiens) (UniProt Q9Y6M4); experiment: Selectivity interaction (ProQinase) EUB0000171b CSNK1G3
Chain of Casein kinase I isoform gamma-3 (Homo sapiens) (Q9Y6M4 whole entry, looked up, canonical isoform): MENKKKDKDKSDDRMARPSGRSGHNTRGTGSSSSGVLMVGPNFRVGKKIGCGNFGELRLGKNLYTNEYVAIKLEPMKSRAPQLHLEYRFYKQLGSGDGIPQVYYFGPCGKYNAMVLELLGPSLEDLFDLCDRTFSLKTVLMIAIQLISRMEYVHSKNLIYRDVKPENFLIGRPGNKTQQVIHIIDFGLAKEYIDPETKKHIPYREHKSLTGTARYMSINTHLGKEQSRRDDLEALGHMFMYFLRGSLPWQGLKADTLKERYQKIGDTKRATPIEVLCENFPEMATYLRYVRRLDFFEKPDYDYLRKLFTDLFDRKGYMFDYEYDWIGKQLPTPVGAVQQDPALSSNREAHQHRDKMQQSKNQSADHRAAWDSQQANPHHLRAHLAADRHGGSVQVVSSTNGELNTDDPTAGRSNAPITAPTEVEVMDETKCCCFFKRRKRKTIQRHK

Chain of Non-receptor tyrosine-protein kinase TYK2 (P29597 whole entry): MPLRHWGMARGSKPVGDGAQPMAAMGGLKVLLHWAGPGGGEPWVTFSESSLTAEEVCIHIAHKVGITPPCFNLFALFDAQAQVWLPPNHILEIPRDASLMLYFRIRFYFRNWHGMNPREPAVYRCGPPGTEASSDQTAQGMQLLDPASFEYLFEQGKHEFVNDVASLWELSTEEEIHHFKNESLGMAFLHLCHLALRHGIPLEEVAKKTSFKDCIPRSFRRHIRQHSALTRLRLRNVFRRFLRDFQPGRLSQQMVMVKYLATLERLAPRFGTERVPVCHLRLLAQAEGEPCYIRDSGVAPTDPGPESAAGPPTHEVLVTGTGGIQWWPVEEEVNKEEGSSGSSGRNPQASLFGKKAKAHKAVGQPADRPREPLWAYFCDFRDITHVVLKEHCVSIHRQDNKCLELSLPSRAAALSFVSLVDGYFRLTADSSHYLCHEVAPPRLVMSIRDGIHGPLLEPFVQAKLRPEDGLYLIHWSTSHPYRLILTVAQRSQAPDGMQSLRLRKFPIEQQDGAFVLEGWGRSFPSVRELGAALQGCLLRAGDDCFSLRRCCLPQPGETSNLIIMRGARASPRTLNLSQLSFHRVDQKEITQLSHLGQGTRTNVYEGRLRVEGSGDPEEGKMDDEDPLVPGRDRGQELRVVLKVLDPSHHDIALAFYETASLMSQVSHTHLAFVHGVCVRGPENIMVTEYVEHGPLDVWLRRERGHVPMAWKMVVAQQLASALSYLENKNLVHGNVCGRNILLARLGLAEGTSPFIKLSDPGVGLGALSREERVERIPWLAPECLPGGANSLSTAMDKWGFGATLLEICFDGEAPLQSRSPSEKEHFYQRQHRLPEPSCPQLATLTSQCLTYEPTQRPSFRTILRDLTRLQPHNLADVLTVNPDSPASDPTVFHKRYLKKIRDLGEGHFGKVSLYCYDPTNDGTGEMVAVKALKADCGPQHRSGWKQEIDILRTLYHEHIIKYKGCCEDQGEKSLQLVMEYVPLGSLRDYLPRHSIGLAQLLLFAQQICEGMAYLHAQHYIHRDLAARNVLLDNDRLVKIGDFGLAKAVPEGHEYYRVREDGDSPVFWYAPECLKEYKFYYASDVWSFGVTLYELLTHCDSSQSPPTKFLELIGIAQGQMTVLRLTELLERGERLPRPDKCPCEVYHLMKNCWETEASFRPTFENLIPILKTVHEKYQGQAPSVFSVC
Chain of Cyclin-dependent kinase 5 (Q00535 whole entry, looked up): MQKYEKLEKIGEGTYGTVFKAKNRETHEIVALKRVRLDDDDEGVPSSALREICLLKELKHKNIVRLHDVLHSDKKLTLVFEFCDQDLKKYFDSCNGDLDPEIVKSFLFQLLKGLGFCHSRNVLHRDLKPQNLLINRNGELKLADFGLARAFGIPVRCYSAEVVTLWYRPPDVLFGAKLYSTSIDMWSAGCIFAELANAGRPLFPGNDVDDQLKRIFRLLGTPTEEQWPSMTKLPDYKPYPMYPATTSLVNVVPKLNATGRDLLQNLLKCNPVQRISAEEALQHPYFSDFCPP
Chain of Dual specificity protein kinase CLK3 (P49761 whole entry, looked up, canonical isoform): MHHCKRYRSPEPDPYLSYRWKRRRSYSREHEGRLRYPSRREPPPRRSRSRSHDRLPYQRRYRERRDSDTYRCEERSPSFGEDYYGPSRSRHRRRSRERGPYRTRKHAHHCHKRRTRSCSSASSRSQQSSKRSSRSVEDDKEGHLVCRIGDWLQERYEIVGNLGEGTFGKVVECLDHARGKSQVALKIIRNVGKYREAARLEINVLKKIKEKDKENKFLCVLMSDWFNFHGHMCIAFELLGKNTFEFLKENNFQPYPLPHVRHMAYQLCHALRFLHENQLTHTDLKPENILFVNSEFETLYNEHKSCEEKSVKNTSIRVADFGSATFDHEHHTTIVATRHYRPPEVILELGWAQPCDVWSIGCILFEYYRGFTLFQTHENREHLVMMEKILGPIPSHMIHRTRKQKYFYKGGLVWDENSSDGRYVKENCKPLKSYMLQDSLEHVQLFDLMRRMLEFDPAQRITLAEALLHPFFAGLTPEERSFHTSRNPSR
Chain of Ribosomal protein S6 kinase alpha-6 (Q9UK32 whole entry): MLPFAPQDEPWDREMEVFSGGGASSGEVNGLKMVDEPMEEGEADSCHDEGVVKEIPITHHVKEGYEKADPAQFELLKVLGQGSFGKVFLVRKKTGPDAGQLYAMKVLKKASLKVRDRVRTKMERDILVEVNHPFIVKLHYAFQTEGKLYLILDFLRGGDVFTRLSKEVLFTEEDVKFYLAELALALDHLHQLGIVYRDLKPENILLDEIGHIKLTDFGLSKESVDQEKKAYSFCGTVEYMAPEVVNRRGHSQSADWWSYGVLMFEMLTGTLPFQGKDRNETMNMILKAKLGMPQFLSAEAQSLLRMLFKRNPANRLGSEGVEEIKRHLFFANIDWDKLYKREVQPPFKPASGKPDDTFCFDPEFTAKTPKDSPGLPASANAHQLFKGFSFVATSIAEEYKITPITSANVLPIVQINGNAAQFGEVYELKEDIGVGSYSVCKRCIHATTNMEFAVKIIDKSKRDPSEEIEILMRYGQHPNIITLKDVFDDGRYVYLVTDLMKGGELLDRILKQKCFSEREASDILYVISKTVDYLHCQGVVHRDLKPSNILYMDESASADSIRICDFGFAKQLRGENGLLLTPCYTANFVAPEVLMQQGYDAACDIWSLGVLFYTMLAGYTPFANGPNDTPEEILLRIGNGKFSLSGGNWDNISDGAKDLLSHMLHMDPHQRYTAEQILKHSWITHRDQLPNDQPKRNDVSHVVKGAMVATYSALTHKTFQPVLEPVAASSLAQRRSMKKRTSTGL
Chain of Tyrosine-protein kinase ABL1 (P00519 whole entry): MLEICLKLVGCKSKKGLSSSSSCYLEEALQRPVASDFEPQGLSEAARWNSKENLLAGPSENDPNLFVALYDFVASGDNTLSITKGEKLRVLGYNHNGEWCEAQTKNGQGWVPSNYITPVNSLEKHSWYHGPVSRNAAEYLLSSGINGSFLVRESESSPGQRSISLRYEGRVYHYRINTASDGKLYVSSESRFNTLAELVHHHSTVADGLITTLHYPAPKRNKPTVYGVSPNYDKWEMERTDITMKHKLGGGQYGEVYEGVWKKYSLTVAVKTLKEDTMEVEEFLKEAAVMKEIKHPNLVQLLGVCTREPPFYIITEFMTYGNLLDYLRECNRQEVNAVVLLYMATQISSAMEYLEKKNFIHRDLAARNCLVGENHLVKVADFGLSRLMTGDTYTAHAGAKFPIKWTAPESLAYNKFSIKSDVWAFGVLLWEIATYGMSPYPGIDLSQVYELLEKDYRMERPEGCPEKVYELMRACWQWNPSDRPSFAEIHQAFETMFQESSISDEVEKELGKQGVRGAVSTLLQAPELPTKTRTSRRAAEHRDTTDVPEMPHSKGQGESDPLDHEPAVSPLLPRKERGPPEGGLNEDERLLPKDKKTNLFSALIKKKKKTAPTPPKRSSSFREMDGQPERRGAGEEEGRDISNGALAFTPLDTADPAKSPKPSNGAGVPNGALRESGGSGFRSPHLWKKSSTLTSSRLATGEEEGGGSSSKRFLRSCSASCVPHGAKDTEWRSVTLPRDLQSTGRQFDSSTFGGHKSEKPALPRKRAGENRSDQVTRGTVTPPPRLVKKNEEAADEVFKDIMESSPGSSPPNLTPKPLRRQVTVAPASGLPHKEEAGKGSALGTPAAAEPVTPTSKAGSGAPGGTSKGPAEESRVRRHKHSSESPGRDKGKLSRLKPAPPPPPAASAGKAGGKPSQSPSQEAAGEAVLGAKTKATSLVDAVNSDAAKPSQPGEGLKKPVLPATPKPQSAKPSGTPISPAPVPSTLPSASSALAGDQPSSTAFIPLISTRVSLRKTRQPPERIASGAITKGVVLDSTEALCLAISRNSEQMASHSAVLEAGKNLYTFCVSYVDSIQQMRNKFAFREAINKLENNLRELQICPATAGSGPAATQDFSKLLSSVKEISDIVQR
Chain of Death-associated protein kinase 2 (Homo sapiens) (Q9UIK4 whole entry, looked up): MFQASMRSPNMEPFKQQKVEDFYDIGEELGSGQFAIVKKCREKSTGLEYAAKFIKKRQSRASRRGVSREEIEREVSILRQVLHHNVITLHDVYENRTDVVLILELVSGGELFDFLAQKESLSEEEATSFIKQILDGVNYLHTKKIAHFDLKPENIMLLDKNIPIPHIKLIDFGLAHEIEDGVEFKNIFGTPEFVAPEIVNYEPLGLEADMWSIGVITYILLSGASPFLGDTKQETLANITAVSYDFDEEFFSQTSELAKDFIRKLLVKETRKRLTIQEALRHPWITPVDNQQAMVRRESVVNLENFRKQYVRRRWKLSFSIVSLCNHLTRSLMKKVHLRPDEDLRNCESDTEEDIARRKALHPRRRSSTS
Chain of Casein kinase II subunit alpha' (Homo sapiens) (P19784 whole entry, looked up): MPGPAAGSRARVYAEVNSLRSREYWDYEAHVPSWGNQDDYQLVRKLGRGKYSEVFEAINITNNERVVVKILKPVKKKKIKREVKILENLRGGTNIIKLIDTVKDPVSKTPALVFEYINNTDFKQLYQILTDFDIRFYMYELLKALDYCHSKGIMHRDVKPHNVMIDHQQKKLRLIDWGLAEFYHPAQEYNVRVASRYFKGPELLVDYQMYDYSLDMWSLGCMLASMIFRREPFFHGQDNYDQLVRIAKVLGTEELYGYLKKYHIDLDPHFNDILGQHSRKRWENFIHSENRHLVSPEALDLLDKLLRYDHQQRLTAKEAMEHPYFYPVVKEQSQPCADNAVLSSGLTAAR

Q: `CN1Cc2nccc(-c3cn(C)nc3-c3ccc(F)cc3)c2C1=O` was tested. Which % of inhibition [1] did it give?
A: 2%

Q: How did the % of control [2] turn out when `O=C(NOC[C@H](O)CO)c1ccc(F)c(F)c1Nc1ccc(I)cc1F` was run?
A: 75%

Q: `COc1cc(N(C)c2ccnc3ccc(C(F)(F)F)cc23)cc(OC)c1OC` was tested. Which % binding [3] did it give?
A: 75%

Q: What about the % binding [4] of the same molecule?
A: 46%

Q: `CC[C@@H]1[C@H](F)C(=O)N[C@@H]1COc1nccc2cc(C(N)=O)c(OC)cc12` [ZIMLOVISERTIB] was tested. Which % of inhibition [5] did it give?
A: -6.8%

Q: How did the % of control [6] turn out when `COCC(=O)NC/C=C/c1ccc2ncnc(Nc3ccc(Oc4ccc(C)nc4)c(C)c3)c2c1` [CP-724714] was run?
A: 100%

Q: Which % of control [7] does the source give for `CN(C)C/C=C/C(=O)Nc1ccc(C(=O)N2CCCC(Nc3ncc(Cl)c(-c4c[nH]c5ccccc45)n3)C2)cc1` (stereo not drawn) here?
A: 33%

Q: What does the source list for `O[C@H]1CC[C@H](Nc2ncc3nc(Nc4c(F)cc(F)cc4F)n([C@H]4CCOC4)c3n2)CC1`?
A: % of control [8]: 100%; % of control [9]: 61%

Q: How did the % of inhibition [10] turn out when `N#Cc1cccc(-c2c[nH]c3ncnc(N4CCOCC4)c23)c1` was run?
A: -1%

Q: Which % of control [11] does the source give for `CNC(=O)Nc1ccc(-c2nc(N3CC4CCC(C3)O4)c3cnn(C4CCC5(CC4)OCCO5)c3n2)cc1` here?
A: 31%

Q: What does the source list for `C=CC(=O)Nc1cccc(C(=O)Nc2ccc(Nc3cc(-c4[nH]c(SC)nc4C)ccn3)cc2)c1`?
A: % of control ([12]; at 1 µM): 38%; % of control ([12]; at 5 µM): 12%
